The supplement of paper PMC8837787

The compounds below were run on Saccharomyces cerevisiae ABC16-Green Monster. Conditions: 18 h; 30 °C; YPD.
How it was run: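 Growth of the drug-sensitive yeast strain S. cerevisiae ABC16-Green Monster was followed by OD600 at 0 h and 18 h after log-phase YPD cultures (200 µl per well, 96-well plates) were exposed at 30 °C to compound at final concentrations of 0.1–150 μM in eight 1:2 steps, in biological duplicate. Untreated cultures were run in parallel. Background-subtracted readings were fitted in GraphPad Prism with a variable-slope log(inhibitor) versus response model to give IC50.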

SMILES	IC50 growth inhibition [µM]
Cc1nc([P+](c2ccccc2)(c2ccccc2)c2ccccc2)c(SCc2ccccc2)o1 [GNF-Pf-3891]	5.85
CC1=NN(c2nc3ccccc3s2)C(=O)C1Cc1cccc2ccccc12 (configuration not stated)	40.7
CC(C)c1cc(NCCCN2CCOCC2)n2ncc(-c3ccccc3)c2n1	25.1
CCC(C)C1OC2(CCC1C)CC1CC(CC=C(C)C(OC3CC(OC)C(OC4CC(OC)C(O)C(C)O4)C(C)O3)C(C)C=CC=C3COC4C(O)C(C)=CC(C(=O)O1)C34O)O2 (configuration not stated) [Ivermectin]	> 75
N#C/C(=C\c1cn(Cc2ccccc2)nc1-c1cccnc1)c1nc2ccccc2[nH]1	138
O=C(Nc1ccc(Cl)c(Cl)c1)Nc1ccc(Cl)c(Cl)c1	0.32
Cn1c(N)c(C(=O)CSc2nnc(-c3ccccc3)c(-c3ccccc3)n2)c(=O)n(C)c1=O	22.9
Cc1cc(C2CCCCC2)n(O)c(=O)c1 [Ciclopirox]	33.4
CCOC(=O)NC(=O)c1ccsc1NC(=O)c1nc2ccccc2s1	34.6
O=C(COc1cccc(F)c1)Nc1nc(-c2ccccn2)cs1	35.1
O=c1c(Cl)c(Cl)cnn1-c1nc2ccccc2[nH]1	13.2
O=C1C=CC(=O)N1c1ccc(C2CCCCC2)cc1	1.69
CCN1C(=Cc2cc(C)[n+](CCCN3CCOCC3)c(C)c2)Sc2ccccc21	55.3
CC(C)(C)c1ccc(C(=N)NOC(=O)c2sccc2Cl)cc1	8.34
FC(F)(F)c1cccc(-c2nc3c(NCc4ccncc4)nccc3[nH]2)c1	41.6
Cc1cc(F)c(C(=O)Nc2cccc(-c3nncn3C(C)C)n2)cc1-n1cnc(C2CC2)c1 [GS-4997]	> 75
O=C(Nc1ccc2c(c1)B(O)OC2)c1ccccc1C(F)(F)F	1.72
O=P(O)(O)C(O)(Cn1ccnc1)P(=O)(O)O [Zoledronate]	> 75
O=C(NCCc1ccccc1)c1cc(-c2cccnc2)cnc1NCC1CC1	15.9

SMILES	IC50 growth inhibition [µM]
Cc1ccc(Cc2c(C)nn(-c3nc4ccccc4[nH]3)c2O)cc1 [CBR868]	5.39
O=C(Nc1nc(-c2ccccn2)cs1)c1cncn1-c1ccccc1	26.2
CN(Cc1ccc(Cl)s1)C(=O)Cn1ncc(Br)c(Br)c1=O	24.2
COc1ccccc1NC(=O)c1ccc(NC(=O)Cn2ncc(Cl)c(Cl)c2=O)cc1	0.238
CNCCC(Oc1ccc(C(F)(F)F)cc1)c1ccccc1 (configuration not stated)	48.3
CC1CCC2C(C)C(=O)OC3OC4(C)CCC1C32OO4 (configuration not stated) [Artemisinin]	34.3
CCC(=O)NC(c1ccccc1Cl)c1cc(Cl)c2cccnc2c1O (configuration not stated) [GNF-Pf-5038]	6.51
CC(C)(C)C1CCc2[nH]c3ccccc3c(=O)c2C1 (configuration not stated) [GNF-Pf-3815]	60.3
Cc1cc(C(=O)NCCSc2ccccc2)c(C)n1C(C)C	60.5
COc1cc(N2CCC(N3CCN(C)CC3)CC2)ccc1Nc1ncc(Cl)c(Nc2ccccc2P(C)(C)=O)n1 [Brigatinib]	> 75
O=C(Nc1cccc(C(F)(F)F)c1)Nc1ncc([N+](=O)[O-])s1	52.4
CCS(=O)(=O)c1ncc(Cl)c(C(=O)Nc2cc(Cl)cc(Cl)c2)n1	6.66
CC(C)(C)c1ccc2c(c1)CN(Cc1ccc(Cl)cc1)CO2	14.3
Cc1ccc2nc(-c3ccc(N(C)C)cc3)[nH]c2c1	11.8
N.N.O=C([O-])C1(C(=O)[O-])CCC1.[Pt+2] [Carboplatin]	> 75
Brc1ccc(Nc2nc3ccccc3nc2Nc2ccc(Br)cc2)cc1	2.31
CCN(CC)S(=O)(=O)c1ccc(C(=O)Nc2cc(C)nn2-c2nc(C)c(C)c(=O)[nH]2)cc1	68.4
C=CCc1c(C)nc2c(-c3ccccc3)cnn2c1N1CCN(CCO)CC1	62.8
